Values after ≈ are worked out from the molar mass of the structure shown. Values joined by “and” are separate entries in the source; they are usually repeats but may differ in a detail not shown here. Equal entries are not always repeated. Structures can show the parent of a compound that is named as a salt.
Legend:
Test in all cases: Plaque reduction assay (PRA) in MDCK cells
[1] = tested on: A/Victoria/3/75 BVLV017 (H3N2); assay type: cell-based, influenza virus; details: plaque numbers reduced by 50%
[2] = tested on: A/Sydney/5/97 BVLV015 (H3N2); assay type: cell-based, influenza virus; details: plaque numbers reduced by 50%; for EC50: Influenza A virus, MDCK, read-out: EC50 ng/ml PRA A/Syd
[3] = tested on: B/Harbin/7/95 BVLV008; assay type: cell-based, influenza virus; details: read-out: EC50 ng/ml PRA B/Harb
[4] = tested on: A/Panama/2007/99 BVLV008 (H3N2); assay type: cell-based, influenza virus; details: plaque numbers reduced by 50%; for EC50: Influenza A virus, H3N2, MDCK, read-out: EC50 ng/ml PRA A/Pan
[5] = tested on: A/New Caledonia/20/99 BVLV008 (H1N1); assay type: cell-based, influenza virus; details: plaque numbers reduced by 50%; for EC50: Influenza A virus, H1N1, MDCK, read-out: EC50 ng/ml PRA A/New
[6] = tested on: A/WSN/33 BVLV09 (H1N1); assay type: cell-based, influenza virus; details: plaque numbers reduced by 50%; for EC50: Influenza A virus, MDCK, read-out: EC50 ng/ml PRA A/WSN
[7] = tested on: A/Bayern/7/95 BVL006 (H1N1); assay type: cell-based; details: Influenza A virus, plaque numbers reduced by 50%, read-out: EC50 ng/ml PRA A/Bay
[8] = tested on: B/Hong Kong/5/72 BVLV012; assay type: cell-based, influenza virus; details: for EC50: MDCK, read-out: EC50 ng/ml PRA B/HongK
[9] = tested on: B/Yamanashi/166/98 BVLV007; assay type: cell-based, influenza virus; details: plaque numbers reduced by 50%; for EC50 ng/ml PRA B/Yam: B/Yamanashi/166/98 BVLV007
[10] = tested on: B/Victoria/1/67; assay type: cell-based, influenza virus; details: plaque numbers reduced by 50%, bis(trifluoroacetic acid salt)

SMILES | EC50 ([1]; Influenza A virus, H3N2, MDCK, read-out: EC50 ng/ml PRA A/Vic) | EC50 [2] | EC50 [3] | EC50 [4] | EC50 ng/ml PRA A/Pan [4] | EC50 [5] | EC50 ng/ml PRA A/New [5] | EC50 [6] | EC50 ng/ml PRA A/WSN [6] | EC50 [7] | EC50 [8] | EC50 ng/ml PRA B/Yam [9] | EC50 ng/ml PRA A/Syd [2] | EC50 ng/ml PRA B/Vic [10] | EC50 ng/ml PRA A/Vic [1] | EC50 ng/ml PRA B/HongK ([8]; B/Hong Kong/5/72 BVLV012, plaque numbers reduced by 50%) | EC50 ([9]; unidentified influenza virus, MDCK, read-out: EC50 ng/ml PRA B/Yam, B/Yamanashi/166/98 BVLV007)
CC(=O)N[C@H]1[C@H]([C@H](O)[C@H](O)CO)OC(C(=O)O)=C[C@@H]1NC(=N)N [Compound A] | 5.5 ng/mL (≈ 16.6 nM) | 2.4 ng/mL (≈ 7.22 nM) | 0.19 ng/mL (≈ 0.572 nM) | 2.7 ng/mL (≈ 8.12 nM) | 3 ng/mL (≈ 9.03 nM) | 0.27 ng/mL (≈ 0.812 nM) | 0.23 ng/mL (≈ 0.692 nM) | 56 ng/mL (≈ 169 nM) | > 100 ng/mL | 35 ng/mL (≈ 105 nM) | 21 ng/mL (≈ 63.2 nM) | – | – | – | – | – | –
CC(=O)N[C@H]1[C@H]([C@H](OC(=O)NCCCCCCCCCCCCNC(=O)O[C@@H]([C@@H]2OC(C(=O)O)=C[C@H](NC(=N)N)[C@H]2NC(C)=O)[C@H](O)CO)[C@H](O)CO)OC(C(=O)O)=C[C@@H]1NC(=N)N.O=C(O)C(F)(F)F.O=C(O)C(F)(F)F [Example 2, (2R,3R,4S)-3-(acetylamino)-2-{(1R,20R,21R)-20-((2R,3R,4S)-3-(acetylamino)-4-{[amino(imino)methyl]amino}-6-carboxy-3,4-dihydro-2H-pyran-2-yl)-1-[(1R)-1,2-dihydroxyethyl]-21,22-dihydroxy-3,18-dioxo-2,19-dioxa-4,17-diazadocos-1-yl}-4-{[amino(imino)methyl]amino}-3,4-dihydro-2H-pyran-6-carboxylic acid bis(trifluoroacetic acid salt)] | – | – | – | – | – | – | – | – | – | – | – | <0.0001 ng/mL | <0.0001 ng/mL | 0.04 ng/mL and 0.05 ng/mL | – | – | –
CC(=O)N[C@H]1[C@H]([C@H](OC(=O)NCCCCCCCCCCCCCCNC(=O)O[C@@H]([C@@H]2OC(C(=O)O)=C[C@H](NC(=N)N)[C@H]2NC(C)=O)[C@H](O)CO)[C@H](O)CO)OC(C(=O)O)=C[C@@H]1NC(=N)N.O=C(O)C(F)(F)F.O=C(O)C(F)(F)F [Example 3, (2R,3R,4S)-3-(acetylamino)-2-{(1R,22R,23R)-22-((2R,3R,4S)-3-(acetylamino)-4-{[amino(imino)methyl]amino}-6-carboxy-3,4-dihydro-2H-pyran-2-yl)-1-[(1R)-1,2-dihydroxyethyl]-23,24-dihydroxy-3,20-dioxo-2,21-dioxa-4,19-diazatetracos-1-yl}-4-{[amino(imino)methyl]amino}-3,4-dihydro-2H-pyran-6-carboxylic acid bis(trifluoroacetic acid salt)] | – | – | – | – | – | – | – | – | – | – | – | <0.0001, <0.0001 ng/ml | 0.000429 ng/mL | 0.009 ng/mL and 0.01 ng/mL | 0.0023 ng/mL | <0.0001 ng/mL | –
CC(=O)N[C@H]1[C@H]([C@H](OC(=O)NCCCCCCCCCCCCCNC(=O)O[C@H](C(O)CO)[C@@H]2OC(C(=O)O)=C[C@H](NC(=N)N)[C@H]2NC(C)=O)[C@H](O)CO)OC(C(=O)O)=C[C@@H]1NC(=N)N (stereo partly drawn) [Example 4, (2R,3R,4S)-3-(acetylamino)-2-{(1R,21R,22R)-21-((2R,3R,4S)-3-(acetylamino)-4-{[amino(imino)methyl]amino}-6-carboxy-3,4-dihydro-2H-pyran-2-yl)-1-[(1R)-1,2-dihydroxyethyl]-22,23-dihydroxy-3,19-dioxo-2,20-dioxa-4,18-diazatricos-1-yl}-4-{[amino(imino)methyl]amino}-3,4-dihydro-2H-pyran-6-carboxylic acid bis(trifluoroacetic acid salt)] | – | < 0.0001 ng/mL | – | < 1e-05 ng/mL | – | 0.043 ng/mL | – | < 0.0001 ng/mL | – | – | 0.06 ng/mL | – | – | – | – | – | < 0.0001 ng/mL
